Among the data in US10000476B2, “Pyridone derivative, pharmaceutical containing the same and methods of use thereof” (KAKEN PHARMACEUTICAL CO., LTD., priority 2011, dated 2018) are IC50 values, retold here.

pIC50: −log10 of the molar value. Where only a bound is given, the exact number is not on record here.

Chain of TACE (P78536 215-824): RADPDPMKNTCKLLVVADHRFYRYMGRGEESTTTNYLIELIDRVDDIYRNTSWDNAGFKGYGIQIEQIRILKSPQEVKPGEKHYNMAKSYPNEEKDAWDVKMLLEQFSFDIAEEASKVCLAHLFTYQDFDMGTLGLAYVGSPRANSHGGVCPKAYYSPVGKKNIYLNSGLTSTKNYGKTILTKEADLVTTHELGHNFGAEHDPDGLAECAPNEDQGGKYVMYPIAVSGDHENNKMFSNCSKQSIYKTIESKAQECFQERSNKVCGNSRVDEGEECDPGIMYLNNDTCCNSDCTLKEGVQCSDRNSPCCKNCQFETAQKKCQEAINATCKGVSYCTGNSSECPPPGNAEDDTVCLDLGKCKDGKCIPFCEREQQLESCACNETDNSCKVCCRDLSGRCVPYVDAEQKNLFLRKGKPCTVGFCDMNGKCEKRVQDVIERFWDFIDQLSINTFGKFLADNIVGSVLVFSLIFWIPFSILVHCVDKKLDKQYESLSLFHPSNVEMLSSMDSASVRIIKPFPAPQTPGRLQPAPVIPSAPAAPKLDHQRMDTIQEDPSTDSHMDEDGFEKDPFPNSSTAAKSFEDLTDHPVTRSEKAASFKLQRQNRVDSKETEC

The test has as its target TACE (Homo sapiens (Human), UniProt P78536). In words: TACE inhibition test (in vitro). Conditions: fluorescent synthetic substrate, 37° C., 1.5 hours. The test is classed as biochemical. How it is done: The nucleotide sequence of TACE has been reported by Moss et al. (Moss, M. L. et al., Nature 1997, 385, 733-736). Accordingly, the cDNA of TACE was obtained according to the prescribed method from THP-1 cells or the like, and then incorporated the cDNA into an expression vector. Next, this vector was transformed into mammalian cells or insect cells, and TACE expression was obtained.
The TACE inhibition test was carried out by measuring TACE activity in the presence and the absence of the test substance using the thus-obtained TACE as an enzyme, and a fluorescent synthetic substrate Nma(N-methylanthranilic acid)-Leu-Ala-Gln-Ala-Val-Arg-Ser-Ser-Lys(Dnp(dinitrophenyl))-D-Arg-NH2 (SEQ ID NO: 1) including the TACE-cleaved sequence of a membrane-bound TNF as a substrate. The TACE inhibition test method is shown below.
Namely, 90 μL of an enzyme solution prepared with an assay buffer A (50 mM tris-hydrochloric acid buffer (pH 7.5) including 200 mM sodium chloride, 5 mM calcium chloride, 10 μM zinc sulfate, and 2 mg/mL bovine serum albumin) and 90 μL of a fluorescent synthetic substrate prepared with an assay buffer B (50 mM tris-hydrochloric acid buffer (pH 7.5) including 200 mM sodium chloride, 5 mM calcium chloride, 10 μM zinc sulfate, and 0.05% PLURONIC F-68) were mixed together, and reacted at 37° C. for 1.5 hours. Enzyme activity was then determined by measuring with a fluorescence intensity meter (Labsystems, Fluoroskan Ascent) at an excitation wavelength of 355 nm and a measurement wavelength of 460 nm.
From the enzyme activity in the presence or the absence of the test substance, the inhibition rate was determined, and the 50% inhibitiory concentration (IC50) of the test substance was calculated.
By pIC50 is commonly meant the IC50 on a negative log10 scale, so that one unit is a factor of ten. The low end stands for a large IC50, the high end for a small IC50. Consider `O=C1NC(=O)C(Cn2cccc(CO)c2=O)(c2ccc(Cc3ccccc3)cc2)N1` (centres unmarked) [Compound I-151], for which the pIC50 was 6.00 to 7.00.
Take `Cc1ccc(Oc2ccc(C3(Cn4cccc(C)c4=O)NC(=O)NC3=O)cc2)cc1` (centres unmarked) [Compound I-34, 5-[(3-methyl-2-oxopyridin-1(2H)-yl)methyl]-5-[4-(p-tolyloxy)phenyl]imidazolidine-2,4-dione]: the pIC50 is > 7.00.
The result for `Cc1cccn(CC2(c3cc(F)c(F)cc3F)NC(=O)NC2=O)c1=O` (centres unmarked) [Compound I-29, 5-[(3-methyl-2-oxopyridin-1(2H)-yl)methyl]-5-(2,4,5-trifluorophenyl)imidazolidine-2,4-dione] reads > 7.00.
For `Cc1cccn(CC2(c3ccc4occc4c3)NC(=O)NC2=O)c1=O` (centres unmarked) [Compound I-22, 5-(benzofuran-5-yl)-5-[(3-methyl-2-oxopyridin-1(2H)-yl)methyl]imidazolidine-2,4-dione], the pIC50 is > 7.00.
`Cc1cccn(CC2(c3cccc(O)c3)NC(=O)NC2=O)c1=O` (centres unmarked) [Compound I-54, 5-(3-hydroxyphenyl)-5-[(3-methyl-2-oxopyridin-1(2H)-yl)methyl]imidazolidine-2,4-dione] showed a pIC50 of 6.00 to 7.00.
The value for `O=C1NC(=O)C(Cn2cccc(F)c2=O)(c2ccc3ccccc3c2)N1` (centres unmarked) [Compound I-135] was > 7.00; that for `Cc1cc(C2(Cn3cccc(C)c3=O)NC(=O)NC2=O)ccc1OC1CCCCC1` (centres unmarked) [Compound I-131] was > 7.00.
For the molecule `Cc1cccn(CC2(c3ccc(F)c(Cl)c3)NC(=O)NC2=O)c1=O` (centres unmarked) [Compound I-126], the pIC50 was > 7.00.
The value for `O=C1NC(=O)C(Cn2cccc(Br)c2=O)(c2ccc(Cc3ccccc3)cc2)N1` (centres unmarked) [Compound I-149] was > 7.00.
For `Cc1cccn(CC2(c3cccc(C#CCN(C)C)c3)NC(=O)NC2=O)c1=O` (centres unmarked) [Compound I-71], the pIC50 is > 7.00.
The result for `COc1cc(C)c(Cl)cc1C1(Cn2cccc(C)c2=O)NC(=O)NC1=O` (centres unmarked) [Compound I-70] reads 6.00 to 7.00; that for `O=C1NC(=O)C(Cn2ccccc2=O)(c2cc(F)c(F)c(F)c2)N1` (centres unmarked) [Compound I-157], > 7.00; that for `O=C1NC(=O)C(Cn2cccc(CO)c2=O)(c2ccc(F)c(F)c2)N1` (centres unmarked) [Compound I-148], 6.00 to 7.00.
As to `Cc1cccn(CC2(c3ccsc3)NC(=O)NC2=O)c1=O` (centres unmarked) [Compound I-5, 5-[(3-methyl-2-oxopyridin-1(2H)-yl)methyl]-5-(thiophen-3-yl)imidazolidine-2,4-dione], the pIC50 was > 7.00.
`Cc1cccn(CC2(c3ccc(OCc4ccc(F)cc4)cc3)NC(=O)NC2=O)c1=O` (centres unmarked) [Compound I-88]: the pIC50 is > 7.00.
The value for `COc1cccc(-c2ccc(C3(Cn4cccc(C)c4=O)NC(=O)NC3=O)cc2)c1` (centres unmarked) [Compound I-73] was > 7.00.
The result for `Cc1cccn(CC2(c3ccc(CCc4ccccn4)cc3)NC(=O)NC2=O)c1=O` (centres unmarked) [Compound I-115] reads > 7.00.
Regarding `Cc1cccn(CC2(c3cccc(-c4ccc(F)cn4)c3)NC(=O)NC2=O)c1=O` (centres unmarked) [Compound I-93], the pIC50 is > 7.00.
The value for `Cc1cccn(CC2(c3ccc(-c4ccc(F)cc4)cc3)NC(=O)NC2=O)c1=O` (centres unmarked) [Compound I-75] was > 7.00; that for `Cc1cccn(CC2(c3ccc(Br)cc3)NC(=O)NC2=O)c1=O` (centres unmarked) [Compound I-11, 5-(4-bromophenyl)-5-[(3-methyl-2-oxopyridin-1(2H)-yl)methyl]imidazolidine-2,4-dione] was > 7.00; that for `Cc1cccn(CC2(c3cccc(Br)c3)NC(=O)NC2=O)c1=O` (centres unmarked) [Compound I-57] was > 7.00.
The value for `Cc1cccn(CC2(c3ccc(F)cc3)NC(=O)NC2=O)c1=O` (centres unmarked) [Compound I-15, 5-(4-fluorophenyl)-5-[(3-methyl-2-oxopyridin-1(2H)-yl)methyl]imidazolidine-2,4-dione] was > 7.00.
The result for `O=C1NC(=O)C(Cn2cccc(Cl)c2=O)(c2cc3ccccc3o2)N1` (centres unmarked) [Compound I-51, 5-(benzofuran-2-yl)-5-[(3-chloro-2-oxopyridin-1(2H)-yl)methyl]imidazolidine-2,4-dione] reads > 7.00.
